SMILES strings stand for the structures.

The text below walks through data of patent US20170105953A1, “METHOD FOR SUPPRESSING DIABETES AND/OR HEPATIC LIPIDS USING TORMENTIC ACID” (priority 2015, published 2017).

Common to all, as to format: in vivo, C57BL/6J mice
One assay has as its system apo C-III. The experiment in a line: semiquantitative RT-PCR, liver apo C-III mRNA. Particulars: HF diet-fed mice, normalized to GAPDH, vs HF group. An excerpt: (§1) For part 2, C57BL/6J mice (4 weeks old) were obtained from the National Laboratory Animal Breeding and Research Center. The mice were divided randomly into two groups after 7 days acclimation. The control (CON) group (n=9) was fed a low-fat diet (diet 12450B, Research Diets, Inc., New Brunswick, N.J., USA), whereas the experimental group was fed a 45% high-fat diet (diet 12451, Research Diets, Inc.) for 12 weeks. The compositions of the experimental diets are given in previous studies. […]
(§2) Total RNA from the liver tissue was isolated with a Trizol reagent (Molecular Research Center, Inc., Cincinnati, Ohio, USA) according to the manufacturer's directions. The integrity of the extracted total RNA was examined by 2% agarose gel electrophoresis, and the RNA concentration was determined by ultraviolet (UV) light absorbency at 260 and 280 nm (spectrophotometer U-2800A, Hitachi). […] The relative density of the band was evaluated using AlphaDigiDoc 1201 software (Alpha Innotech Co., San Leandro, Calif., USA). All of the measured PCR products were normalized to the amount of cDNA of GAPDH in each sample. […]

For the next assay, the system named is AMPK. Put plainly: western blot, phospho-AMPK (Thr172)/total-AMPK in liver tissue and skeletal muscle. To be noted: HF diet-fed mice. The source says: FIG. 4A is a western blot analysis showing the protein contents of GLUT4 in skeletal muscle, and phospho-AMPK (Thr172) and total-AMPK (Thr172) in both liver tissue and skeletal muscle, and phospho-Akt (Ser473) and total-Akt (Ser473) in skeletal muscle of the mice receiving tormentic acid (PTA) by oral gavage for 4 weeks; and
FIG. 4B is a diagram showing the protein contents of GLUT4 in skeletal muscle, the expression levels of phospho-AMPK (Thr172) to total AMPK in both liver tissue and skeletal muscle, and quantified results from FIG. 4A for the phosphorylation status of Akt (p-Akt normalized to total Akt (pAkt/Akt)) in skeletal muscle of the mice receiving tormentic acid (PTA) by oral gavage for 4 weeks.
For part 2, C57BL/6J mice (4 weeks old) were obtained from the National Laboratory Animal Breeding and Research Center. The mice were divided randomly into two groups after 7 days acclimation. The control (CON) group (n=9) was fed a low-fat diet (diet 12450B, Research Diets, Inc., New Brunswick, N.J., USA), whereas the experimental group was fed a 45% high-fat diet (diet 12451, Research Diets, Inc.) for 12 weeks. The compositions of the experimental diets are given in previous studies. After 8 weeks, the high-fat treated mice were randomly subdivided into four groups (n=9) including PTA1 (0.06 g/kg/day), PTA2 (0.12 g/kg/day) or rosiglitazone (Rosi; 1% methylcellulose, 10 mg/kg body weight) (GlaxoSmithKline) or vehicle and treated by oral gavage one time per day from the 9th to 12th weeks, while the mice were still on the high-fat diet, whereas the CON and high-fat control (HF) mice were treated with vehicle only. At the end, food was withheld from the animals (from 10 p.m. to 10 a.m.). The next day, the mice were sacrificed for blood and tissue collection and analysis. Livers, skeletal muscles, and white adipose tissues (WATs) (including epididymal, mesenteric, and retroperitoneal WAT) were weighed and excised, followed by immediate freezing, and kept at −80° C. for target gene analysis. Heparin (30 units/mL) (Sigma) was added to blood samples. Plasma samples were collected within 30 min by centrifugation at 1600 g for 15 min at 4° C. Plasma was obtained for insulin and leptin assay.
On the technique in general: Immunoblotting shows a protein as a band on a membrane.

The next assay relates to G6 Pase. The experiment in a line: semiquantitative RT-PCR, liver G6 Pase mRNA. Particulars: HF diet-fed mice, normalized to GAPDH, vs HF group.
From the text: as §1, §2

A further assay deals with SREBP1c. Put plainly: semiquantitative RT-PCR, liver SREBP1c mRNA. Particulars: HF diet-fed mice, normalized to GAPDH, vs HF group.
From the text: as §1, §2

With `C[C@@H]1CC[C@]2(C(=O)O)CC[C@]3(C)C(=CC[C@@H]4[C@@]5(C)C[C@@H](O)[C@H](O)C(C)(C)[C@@H]5CC[C@]43C)[C@@H]2[C@]1(C)O` [PTA, tormentic acid], the “mRNA level of apo C-III in liver” value in the assay on apo C-III (PTA1 0.06 g/kg/day 4 weeks) and in the assay on apo C-III (PTA2 0.12 g/kg/day 4 weeks) was “significantly decrease” in each case. Further, the “expression levels of phospho-AMPK/total-AMPK” value was “significantly increase” with AMPK (liver tissue, PTA1 0.06 g/kg/day 4 weeks); “significantly increase” with AMPK (liver tissue, PTA2 0.12 g/kg/day 4 weeks); “significantly increase” with AMPK (skeletal muscle, PTA1 0.06 g/kg/day 4 weeks); “significantly increase” with AMPK (skeletal muscle, PTA2 0.12 g/kg/day 4 weeks). Moreover, the “mRNA level of G6 Pase in liver” value in the assay on G6 Pase (PTA1 0.06 g/kg/day 4 weeks) and in the assay with G6 Pase (PTA2 0.12 g/kg/day 4 weeks) was “significantly decrease” throughout. The “mRNA level of SREBP1c in liver” value in the assay on SREBP1c (PTA1 0.06 g/kg/day 4 weeks) and with SREBP1c (PTA2 0.12 g/kg/day 4 weeks) was “significantly decrease” each time.
